#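 Tested at 5 concentrations; 48 h exposure; 96-well plates; endpoints linearly interpolated, else capped at highest concentration. GI50 = concentration required for 50% inhibition of growth.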 Activity calls are given as the source filed them. Cut-off read from the data, not from the text of the source: active = GI50 up to about 1.1 µM and inactive = higher.
# Tests used:
# Assay in all cases: inhibition of tumour cell growth, NCI panel, 48 h
# EKVX = tested on: EKVX
# HCT-15 = tested on: HCT-15
# K562 = tested on: K562
# SW-620 = tested on: SW-620
# TK-10 = tested on: TK-10
# SK-MEL-5 = tested on: SK-MEL-5
# MDA-MB-231 = tested on: MDA-MB-231
# A498 = tested on: A498
# UACC-62 = tested on: UACC-62
# OVCAR-5 = tested on: OVCAR-5
# MDA-N = tested on: MDA-N
# HCT-116 = tested on: HCT-116
# DU-145 = tested on: DU-145
# HT-29 = tested on: HT-29
# OVCAR-4 = tested on: OVCAR-4
# SK-OV-3 = tested on: SK-OV-3
# OVCAR-8 = tested on: OVCAR-8
# HL-60 = tested on: HL-60
# T47D = tested on: T47D
# A549 = tested on: A549
# NCI-H522 = tested on: NCI-H522
# Hs-578T = tested on: Hs-578T
# SF-295 = tested on: SF-295
# MDA-MB-435 = tested on: MDA-MB-435
# MCF7 = tested on: MCF7
# NCI-H460 = tested on: NCI-H460
# Malme-3M = tested on: Malme-3M
# HOP-62 = tested on: HOP-62
# NCI/ADR-RES = tested on: NCI/ADR-RES
# U-251 = tested on: U-251
# HCC 2998 = tested on: HCC 2998
# ACHN = tested on: ACHN
# COLO 205 = tested on: COLO 205
# LOX IMVI = tested on: LOX IMVI
# UO-31 = tested on: UO-31
# OVCAR-3 = tested on: OVCAR-3
# SNB-75 = tested on: SNB-75
# MOLT-4 = tested on: MOLT-4
# SNB-19 = tested on: SNB-19
# KM12 = tested on: KM12
# IGROV-1 = tested on: IGROV-1
# SK-MEL-2 = tested on: SK-MEL-2
# 786-0 = tested on: 786-0
# CCRF-CEM = tested on: CCRF-CEM
# RXF 393 = tested on: RXF 393
# SK-MEL-28 = tested on: SK-MEL-28
# M14 = tested on: M14
# RPMI-8226 = tested on: RPMI-8226
# NCI-H226 = tested on: NCI-H226
# BT-549 = tested on: BT-549
# SF-539 = tested on: SF-539
# SF-268 = tested on: SF-268
# SN12C = tested on: SN12C
# PC-3 = tested on: PC-3
# NCI-H23 = tested on: NCI-H23
# UACC-257 = tested on: UACC-257
# HOP-92 = tested on: HOP-92
# CAKI-1 = tested on: CAKI-1
compound,measurement,setting,value
CN(C)c1cc[n+](-c2nc([N-]C(=O)C(F)(F)F)nc3c2ncn3C2CC(O)C(CO)O2)cc1 (stereo unspecified),GI50,EKVX,> 100 µM (inactive)
same,GI50,HCT-15,> 100 µM
same,GI50,K562,> 100 µM (inactive)
same,GI50,SW-620,> 100 µM (inactive)
same,GI50,TK-10,> 100 µM (inactive)
same,GI50,SK-MEL-5,> 100 µM (inactive)
same,GI50,MDA-MB-231,> 100 µM (inactive)
same,GI50,A498,> 100 µM (inactive)
same,GI50,UACC-62,> 100 µM (inactive)
same,GI50,OVCAR-5,> 100 µM (inactive)
same,GI50,MDA-N,> 100 µM (inactive)
same,GI50,HCT-116,> 100 µM (inactive)
same,GI50,DU-145,> 100 µM (inactive)
same,GI50,HT-29,> 100 µM (inactive)
same,GI50,OVCAR-4,> 100 µM (inactive)
same,GI50,SK-OV-3,> 100 µM (inactive)
same,GI50,OVCAR-8,> 100 µM (inactive)
same,GI50,HL-60,> 100 µM (inactive)
same,GI50,T47D,> 100 µM (inactive)
same,GI50,A549,> 100 µM (inactive)
same,GI50,NCI-H522,> 100 µM (inactive)
same,GI50,Hs-578T,> 100 µM (inactive)
same,GI50,SF-295,> 100 µM (inactive)
same,GI50,MDA-MB-435,> 100 µM (inactive)
same,GI50,MCF7,> 100 µM (inactive)
same,GI50,NCI-H460,> 100 µM (inactive)
same,GI50,Malme-3M,> 100 µM (inactive)
same,GI50,HOP-62,> 100 µM (inactive)
same,GI50,NCI/ADR-RES,> 100 µM (inactive)
same,GI50,U-251,> 100 µM (inactive)
same,GI50,HCC 2998,> 100 µM (inactive)
same,GI50,ACHN,> 100 µM (inactive)
same,GI50,COLO 205,> 100 µM (inactive)
same,GI50,LOX IMVI,> 100 µM (inactive)
same,GI50,UO-31,> 100 µM (inactive)
same,GI50,OVCAR-3,> 100 µM (inactive)
same,GI50,SNB-75,> 100 µM (inactive)
same,GI50,MOLT-4,> 100 µM (inactive)
same,GI50,SNB-19,> 100 µM (inactive)
same,GI50,KM12,> 100 µM (inactive)
same,GI50,IGROV-1,> 100 µM (inactive)
same,GI50,SK-MEL-2,> 100 µM (inactive)
same,GI50,786-0,> 100 µM (inactive)
same,GI50,CCRF-CEM,> 100 µM (inactive)
same,GI50,RXF 393,> 100 µM (inactive)
same,GI50,SK-MEL-28,> 100 µM (inactive)
same,GI50,M14,> 100 µM (inactive)
same,GI50,RPMI-8226,> 100 µM (inactive)
same,GI50,NCI-H226,> 100 µM (inactive)
same,GI50,BT-549,> 100 µM (inactive)
same,GI50,SF-539,> 100 µM (inactive)
same,GI50,SF-268,> 100 µM (inactive)
same,GI50,SN12C,> 100 µM (inactive)
same,GI50,PC-3,> 100 µM (inactive)
same,GI50,NCI-H23,> 100 µM (inactive)
S=c1[nH]c(Cl)cc2nc(Cl)cn12,GI50,EKVX,2.25 µM (inactive)
same,GI50,HCT-15,4.68 µM
same,GI50,SW-620,6.68 µM (inactive)
same,GI50,TK-10,7.5 µM (inactive)
same,GI50,UACC-257,> 100 µM (inactive)
same,GI50,SK-MEL-5,2.95 µM (inactive)
same,GI50,MDA-MB-231,5.43 µM (inactive)
same,GI50,A498,14.4 µM (inactive)
same,GI50,UACC-62,6.93 µM (inactive)
same,GI50,MDA-N,1.98 µM (inactive)
same,GI50,HCT-116,3.82 µM (inactive)
same,GI50,DU-145,5.01 µM (inactive)
same,GI50,HT-29,4.66 µM (inactive)
same,GI50,OVCAR-4,6.14 µM (inactive)
same,GI50,SK-OV-3,2.93 µM (inactive)
same,GI50,OVCAR-8,4.74 µM (inactive)
same,GI50,T47D,23.4 µM (inactive)
same,GI50,A549,20.2 µM (inactive)
same,GI50,NCI-H522,1.57 µM (inactive)
same,GI50,Hs-578T,2.3 µM (inactive)
same,GI50,SF-295,2.88 µM (inactive)
same,GI50,MDA-MB-435,2.09 µM (inactive)
same,GI50,HOP-92,17.5 µM (inactive)
same,GI50,MCF7,3.13 µM (inactive)
same,GI50,NCI-H460,13.6 µM (inactive)
same,GI50,Malme-3M,2.65 µM (inactive)
same,GI50,HOP-62,4.84 µM (inactive)
same,GI50,NCI/ADR-RES,2.54 µM (inactive)
same,GI50,U-251,4.53 µM (inactive)
same,GI50,HCC 2998,8.79 µM (inactive)
same,GI50,ACHN,8.61 µM (inactive)
same,GI50,COLO 205,2.83 µM (inactive)
same,GI50,LOX IMVI,7.85 µM (inactive)
same,GI50,UO-31,4.7 µM (inactive)
same,GI50,OVCAR-3,2.59 µM (inactive)
same,GI50,SNB-75,2.1 µM (inactive)
same,GI50,CAKI-1,4.53 µM (inactive)
same,GI50,SNB-19,6.04 µM (inactive)
same,GI50,KM12,4.14 µM (inactive)
same,GI50,IGROV-1,4.34 µM (inactive)
same,GI50,SK-MEL-2,3.85 µM (inactive)
same,GI50,786-0,3.72 µM (inactive)
same,GI50,CCRF-CEM,2.52 µM (inactive)
same,GI50,RXF 393,2.84 µM (inactive)
same,GI50,SK-MEL-28,8.2 µM (inactive)
same,GI50,M14,4.24 µM (inactive)
same,GI50,RPMI-8226,16.1 µM (inactive)
same,GI50,NCI-H226,15 µM (inactive)
same,GI50,BT-549,9.89 µM (inactive)
same,GI50,SF-539,2.2 µM (inactive)
same,GI50,SF-268,5.11 µM (inactive)
same,GI50,SN12C,7.29 µM (inactive)
same,GI50,PC-3,3.94 µM (inactive)
same,GI50,NCI-H23,5.82 µM (inactive)
Cc1nnc2n1N=C(c1cc(F)c(Cl)cc1Cl)/C(=C/c1ccc3c(c1)OCO3)S2,GI50,EKVX,23.1 µM (inactive)
same,GI50,HCT-15,52.5 µM
same,GI50,K562,> 100 µM (inactive)
same,GI50,SW-620,> 100 µM (inactive)
same,GI50,TK-10,> 100 µM (inactive)
same,GI50,UACC-257,71.1 µM (inactive)
same,GI50,SK-MEL-5,> 100 µM (inactive)
same,GI50,MDA-MB-231,> 100 µM (inactive)
same,GI50,A498,45.5 µM (inactive)
same,GI50,UACC-62,62.8 µM (inactive)
same,GI50,OVCAR-5,32.1 µM (inactive)
same,GI50,MDA-N,39.3 µM (inactive)
same,GI50,HCT-116,47.8 µM (inactive)
same,GI50,DU-145,72.8 µM (inactive)
same,GI50,HT-29,36.1 µM (inactive)
same,GI50,OVCAR-4,51.6 µM (inactive)
same,GI50,SK-OV-3,> 100 µM (inactive)
same,GI50,OVCAR-8,65.3 µM (inactive)
same,GI50,HL-60,40.4 µM (inactive)
same,GI50,T47D,70.6 µM (inactive)
same,GI50,A549,> 100 µM (inactive)
same,GI50,NCI-H522,20.7 µM (inactive)
same,GI50,Hs-578T,71.6 µM (inactive)
same,GI50,SF-295,53.3 µM (inactive)
same,GI50,MDA-MB-435,45.9 µM (inactive)
same,GI50,HOP-92,65.8 µM (inactive)
same,GI50,MCF7,35.5 µM (inactive)
same,GI50,NCI-H460,> 100 µM (inactive)
same,GI50,Malme-3M,> 100 µM (inactive)
same,GI50,HOP-62,37.1 µM (inactive)
same,GI50,NCI/ADR-RES,69.2 µM (inactive)
same,GI50,U-251,56.6 µM (inactive)
same,GI50,HCC 2998,48.4 µM (inactive)
same,GI50,ACHN,63.5 µM (inactive)
same,GI50,COLO 205,> 100 µM (inactive)
same,GI50,LOX IMVI,33.1 µM (inactive)
same,GI50,UO-31,> 100 µM (inactive)
same,GI50,OVCAR-3,34.4 µM (inactive)
same,GI50,MOLT-4,38.1 µM (inactive)
same,GI50,CAKI-1,69.7 µM (inactive)
same,GI50,SNB-19,> 100 µM (inactive)
same,GI50,KM12,> 100 µM (inactive)
same,GI50,IGROV-1,50.7 µM (inactive)
same,GI50,SK-MEL-2,44 µM (inactive)
same,GI50,786-0,47.4 µM (inactive)
same,GI50,CCRF-CEM,43 µM (inactive)
same,GI50,RXF 393,51.3 µM (inactive)
same,GI50,SK-MEL-28,> 100 µM (inactive)
same,GI50,M14,> 100 µM (inactive)
same,GI50,RPMI-8226,43.6 µM (inactive)
same,GI50,NCI-H226,> 100 µM (inactive)
same,GI50,BT-549,> 100 µM (inactive)
same,GI50,SF-539,> 100 µM (inactive)
same,GI50,SF-268,88.9 µM (inactive)
same,GI50,SN12C,53.7 µM (inactive)
same,GI50,PC-3,63.1 µM (inactive)
same,GI50,NCI-H23,90.8 µM (inactive)

# Source: ChEMBL document CHEMBL1201862, “PubChem BioAssay data set” (2004)
